From the NIST ThermoML archive (doi:10.1016/j.jct.2015.06.036)
± gives the expanded uncertainty stated by the source.

Key:
[1] = refractive index (Na D-line) (dimensionless); settings: 101 kPa, Liquid, Standard Abbe refractometry
[2] = 101 kPa, Liquid; for viscosity: Falling or rolling sphere viscometry; for speed of sound: Sing-around technique in a fixed-path interferometer; for mass density: Vibrating tube method
[3] = xn = mol fraction of the nth substance listed; settings: 101 kPa, Liquid, x2 = 0; for viscosity: Falling or rolling sphere viscometry; for speed of sound: Sing-around technique in a fixed-path interferometer; for mass density: Vibrating tube method
[4] = refractive index (Na D-line) (dimensionless); xn = mol fraction of the nth substance listed; settings: 101 kPa, Liquid, Standard Abbe refractometry, x2 = 0

With `CCCCn1cc[n+](C)c1.F[B-](F)(F)F` [1-butyl-3-methylimidazolium tetrafluoroborate] the refractive index ([1]; 288.15 K) was 1.4243 ± 0.0005, the refractive index ([1]; 298.15 K) was 1.4217 ± 0.0005 and the refractive index ([1]; 308.15 K) was 1.419 ± 0.0005. It also gave a refractive index ([1]; 318.15 K) of 1.4164 ± 0.0005, a viscosity ([2]; 278.15 K) of 361 ± 26 mPa·s and a speed of sound ([2]; 278.15 K) of 1615 ± 2 m/s. It also gave a mass density ([2]; 278.15 K) of 1215.9 ± 0.4 kg/m3, a viscosity ([2]; 288.15 K) of 186 ± 11 mPa·s and a speed of sound ([2]; 288.15 K) of 1590 ± 2 m/s. It also gave a mass density ([2]; 288.15 K) of 1208.5 ± 0.4 kg/m3, a viscosity ([2]; 298.15 K) of 105 ± 5 mPa·s and a speed of sound ([2]; 298.15 K) of 1565 ± 2 m/s. For the same molecule, the mass density ([2]; 298.15 K) was 1201.3 ± 0.4 kg/m3, the viscosity ([2]; 308.15 K) was 64.8 ± 2.7 mPa·s and the speed of sound ([2]; 308.15 K) was 1542 ± 2 m/s. For the same molecule, the mass density ([2]; 308.15 K) was 1194.2 ± 0.4 kg/m3, the viscosity ([2]; 318.15 K) was 42.7 ± 1.8 mPa·s and the speed of sound ([2]; 318.15 K) was 1519 ± 2 m/s. The mass density ([2]; 318.15 K) was 1187.2 ± 0.4 kg/m3.

For `CCn1cc[n+](C)c1.F[B-](F)(F)F` [1-ethyl-3-methylimidazolium tetrafluoroborate], the refractive index ([1]; 288.15 K) was 1.4143 ± 0.0006, the refractive index ([1]; 298.15 K) was 1.4118 ± 0.0006 and the refractive index ([1]; 308.15 K) was 1.4092 ± 0.0006. The refractive index ([1]; 318.15 K) was 1.4067 ± 0.0006, the viscosity ([2]; 278.15 K) was 101 ± 5 mPa·s and the speed of sound ([2]; 278.15 K) was 1677 ± 3 m/s. It also gave a mass density ([2]; 278.15 K) of 1305.3 ± 1.5 kg/m3, a viscosity ([2]; 288.15 K) of 62 ± 2.6 mPa·s and a speed of sound ([2]; 288.15 K) of 1653 ± 3 m/s. It also gave a mass density ([2]; 288.15 K) of 1297.6 ± 1.5 kg/m3, a viscosity ([2]; 298.15 K) of 41 ± 1.7 mPa·s and a speed of sound ([2]; 298.15 K) of 1629 ± 3 m/s. The mass density ([2]; 298.15 K) was 1290 ± 1.5 kg/m3, the viscosity ([2]; 308.15 K) was 28.8 ± 1.2 mPa·s and the speed of sound ([2]; 308.15 K) was 1606 ± 3 m/s. For the same molecule, the mass density ([2]; 308.15 K) was 1282.4 ± 1.5 kg/m3, the viscosity ([2]; 318.15 K) was 21.2 ± 0.9 mPa·s and the speed of sound ([2]; 318.15 K) was 1583 ± 3 m/s. It also gave a mass density ([2]; 318.15 K) of 1274.9 ± 1.5 kg/m3.

In the case of `CO` [methanol], the refractive index ([1]; 288.15 K) is reported as 1.3316 ± 0.0005, the refractive index ([1]; 298.15 K) is reported as 1.3265 ± 0.0005 and the refractive index ([1]; 308.15 K) is reported as 1.3224 ± 0.0005. For the same molecule, the refractive index ([1]; 318.15 K) was 1.3182 ± 0.0005, the viscosity ([2]; 278.15 K) was 0.687 ± 0.028 mPa·s and the speed of sound ([2]; 278.15 K) was 1169 ± 2 m/s. For the same molecule, the mass density ([2]; 278.15 K) was 805.4 ± 0.2 kg/m3, the viscosity ([2]; 288.15 K) was 0.596 ± 0.024 mPa·s and the speed of sound ([2]; 288.15 K) was 1135 ± 2 m/s. It also gave a mass density ([2]; 288.15 K) of 796 ± 0.2 kg/m3, a viscosity ([2]; 298.15 K) of 0.524 ± 0.021 mPa·s and a speed of sound ([2]; 298.15 K) of 1102 ± 2 m/s. For the same molecule, the mass density ([2]; 298.15 K) was 786.6 ± 0.2 kg/m3, the viscosity ([2]; 308.15 K) was 0.466 ± 0.019 mPa·s and the speed of sound ([2]; 308.15 K) was 1070 ± 2 m/s. The mass density ([2]; 308.15 K) was 777.1 ± 0.2 kg/m3, the viscosity ([2]; 318.15 K) was 0.42 ± 0.017 mPa·s and the speed of sound ([2]; 318.15 K) was 1037 ± 2 m/s. It also gave a mass density ([2]; 318.15 K) of 767.6 ± 0.2 kg/m3.

`CO` [methanol] + CCCCn1cc[n+](C)c1.F[B-](F)(F)F showed a viscosity ([3]; 278.15 K) of 0.687 ± 0.028 mPa·s, a speed of sound ([3]; 278.15 K) of 1169 ± 2 m/s and a mass density ([3]; 278.15 K) of 805.4 ± 0.2 kg/m3. The viscosity ([3]; 288.15 K) was 0.596 ± 0.024 mPa·s, the speed of sound ([3]; 288.15 K) was 1135 ± 2 m/s and the mass density ([3]; 288.15 K) was 796 ± 0.2 kg/m3. The viscosity ([3]; 298.15 K) was 0.524 ± 0.021 mPa·s, the speed of sound ([3]; 298.15 K) was 1102 ± 2 m/s and the mass density ([3]; 298.15 K) was 786.6 ± 0.2 kg/m3. The viscosity ([3]; 308.15 K) was 0.466 ± 0.019 mPa·s, the speed of sound ([3]; 308.15 K) was 1070 ± 2 m/s and the mass density ([3]; 308.15 K) was 777.1 ± 0.2 kg/m3. For the same molecule, the viscosity ([3]; 318.15 K) was 0.42 ± 0.017 mPa·s, the speed of sound ([3]; 318.15 K) was 1037 ± 2 m/s and the mass density ([3]; 318.15 K) was 767.6 ± 0.2 kg/m3. It also gave a refractive index ([4]; 288.15 K) of 1.3316 ± 0.0005, a refractive index ([4]; 298.15 K) of 1.3265 ± 0.0005 and a refractive index ([4]; 308.15 K) of 1.3224 ± 0.0005. It also gave a refractive index ([4]; 318.15 K) of 1.3182 ± 0.0005.

`CO` [methanol] + CCn1cc[n+](C)c1.F[B-](F)(F)F showed a viscosity ([3]; 278.15 K) of 0.687 ± 0.028 mPa·s, a speed of sound ([3]; 278.15 K) of 1169 ± 2 m/s and a mass density ([3]; 278.15 K) of 805.4 ± 0.2 kg/m3. The viscosity ([3]; 288.15 K) was 0.596 ± 0.024 mPa·s, the speed of sound ([3]; 288.15 K) was 1135 ± 2 m/s and the mass density ([3]; 288.15 K) was 796 ± 0.2 kg/m3. For the same molecule, the viscosity ([3]; 298.15 K) was 0.524 ± 0.021 mPa·s, the speed of sound ([3]; 298.15 K) was 1102 ± 2 m/s and the mass density ([3]; 298.15 K) was 786.6 ± 0.2 kg/m3. For the same molecule, the viscosity ([3]; 308.15 K) was 0.466 ± 0.019 mPa·s, the speed of sound ([3]; 308.15 K) was 1069 ± 2 m/s and the mass density ([3]; 308.15 K) was 777.1 ± 0.2 kg/m3. For the same molecule, the viscosity ([3]; 318.15 K) was 0.42 ± 0.017 mPa·s, the speed of sound ([3]; 318.15 K) was 1037 ± 2 m/s and the mass density ([3]; 318.15 K) was 767.6 ± 0.2 kg/m3. The refractive index ([4]; 288.15 K) was 1.3316 ± 0.0005, the refractive index ([4]; 298.15 K) was 1.3265 ± 0.0005 and the refractive index ([4]; 308.15 K) was 1.3224 ± 0.0005. For the same molecule, the refractive index ([4]; 318.15 K) was 1.3182 ± 0.0005.
